Reference: US5686486A, “4-hydroxy-benzopyran-2-ones and 4-hydroxy-cycloalkyl[b]pyran-2-ones useful to treat retroviral infections” (priority 1995, dated 1997)
Several values for one entry are separate records, joined by “and”; a condition that tells them apart may be missing. Identical values can stand only once. Like-named read-outs stand apart in the source and are kept apart here.

Target: HIV-1 protease (Human immunodeficiency virus type 1 group M subtype B, UniProt P04585)
Test: biochemical
Details: for inhibition at 0.41 µM: read-out: HIV-1 Protease % Inhib, dose 0.410 uM; for inhibition at 1.23 µM: read-out: HIV-1 Protease % Inhib, dose 1.230 uM; for inhibition at 3.7 µM: read-out: HIV-1 Protease % Inhib, dose 3.700 uM; for inhibition at 11 µM: read-out: HIV-1 Protease % Inhib, dose 11.000 uM; for inhibition at 33 µM: read-out: HIV-1 Protease % Inhib, dose 33.000 uM
Summary of the method: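 Percent inhibition derived from fluorescent cleavage product separated by filtration after streptavidin-bead capture of intact biotin/FITC substrate. Reaction: enzyme (10 μl, 0.1 μM stock) with substrate (20 μl, 0.2 μM stock) and compound, 1 h at room temperature in dark, pH 5.5 acetate buffer with 1.0 M NaCl and 0.05% NP-40.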

[1] = read-out: HIV-1 Protease % Inhib, dose 1.000 uM
[2] = read-out: HIV-1 Protease % Inhib, dose 10.000 uM
[3] = read-out: HIV-1 Protease % Inhib, dose 100.000 uM
[4] = dose 1.000 uM, read-out: HIV-1 Protease % Inhib
[5] = dose 10.000 uM, read-out: HIV-1 Protease % Inhib
[6] = dose 100.000 uM, read-out: HIV-1 Protease % Inhib

Row | SMILES | inhibition at 1 µM [1] [%] | inhibition at 10 µM [2] [%] | inhibition at 100 µM [3] [%] | other results
1 | CCC(c1ccccc1)c1c(O)c2cc(N)ccc2oc1=O (stereo not shown) [Example 96, Coumarin, 6-amino-4-hydroxy-3-(1-phenylpropyl)-] | < 10 | < 10 | 48.7 | 
2 | CCCC(c1cccc(C)c1)c1c(O)c2ccccc2oc1=O (stereo not shown) [Example 97, Coumarin, 4-hydroxy-3-[1-(3-methylphenyl)butyl]-] | < 10 | 29.9 | 78.2 | 
3 | CCC(c1cccc(C#N)c1)c1c(O)c2ccccc2oc1=O (stereo not shown) [Example 98, Coumarin, 3-[1-(3-cyanophenyl)propyl]-4-hydroxy-] | < 10 | < 10 | 74.5 | 
4 | CCC(c1ccccc1)c1c(O)c2ccc3ccccc3c2oc1=O (stereo not shown) [Example 99, 2H-Naphtho[1,2-b]pyran-2-one, 4-hydroxy-3-(1-phenylpropyl)-] | < 10 | < 10 | 43.3 | 
5 | CCC(c1ccc(OCC(O)CO)cc1)c1c(O)c2ccccc2oc1=O (stereo not shown) [Example 100, Coumarin, 4-hydroxy-3-[1-[4-(2,3-dihydroxy)propoxyphenyl]propyl]-] | < 10 | 12.3 | 53 | HIV-1 Protease % Inhib (dose 10.000 uM): < 10%; HIV-1 Protease % Inhib (dose 100.000 uM): 40.3%
6 | CC(c1cccc(C#N)c1)c1c(O)c2ccccc2oc1=O (stereo not shown) [Example 101, Coumarin, 3-[1-(3-Cyanophenyl)ethyl]-4-hydroxy-] | < 10 | < 10 | 39.2 | 
7 | CCC(c1cccc(OC)c1)c1c(O)c2ccccc2oc1=O (stereo not shown) [Example 102, Coumarin, 4-hydroxy-3-[1-(3-methoxyphenyl)propyl]-] | < 10 | 24 | 78.8 | HIV-1 Protease % Inhib (dose 100.000 uM): 75.63%
8 | CCC(c1cccc(O)c1)c1c(O)c2ccccc2oc1=O (stereo not shown) [Example 103, Coumarin, 4-hydroxy-3-[1-(3-hydroxyphenyl)propyl]-] | < 10 | 25.7 | 80.9 | HIV-1 Protease % Inhib (dose 100.000 uM): 87.29% and 73.35%
9 | O=c1oc2ccccc2c(O)c1C(C1CC1)C1CC1 [Example 104, 3-(dicyclopropyl)methyl-4-hydroxycoumarin] | 12.2 | 68.7 | 106 | IC50 (HIV-1 Protease IC50): 6.74 µM
10 | CCC(c1ccccc1)c1c(O)c2ccccc2oc1=O (stereo not shown) [Example 105, 4-hydroxy-3-(1-phenylpropyl)-coumarin] |  |  |  | IC50 (read-out: HIV-1 Protease IC50): 4.88 µM and 3.88 µM
11 | CCC(=O)c1ccc(C(CC)c2c(O)c3ccccc3oc2=O)cc1 (stereo not shown) [Example 106, Coumarin, 4-hydroxy-3-[1-(4-propionylphenyl)propyl]-] | < 10 | 11.7 | 71 | 
12 | CCC(c1ccccc1)c1c(O)c2c(oc1=O)CCCCCC2 (stereo not shown) [Example 108, 5,6,7,8,9,10-Hexahydro-4-hydroxy-3-(1-phenylpropyl)-2H-cycloocta[b]pyran-2-one] | 72.6 | 95.5 | 94.2 | 
13 | CCC(c1ccccc1)c1c(O)c2c(oc1=O)CCCCC2 (stereo not shown) [Example 110, 6,7,8,9-Tetrahydro-4-hydroxy-3-(1-phenylpropyl)-cyclohepta[b]pyran-2(5H)-one] | 16.9 | 73.8 | 99.9 | 
14 | O=c1oc2c(c(O)c1C(c1ccccc1)C1CC1)CCC2 (stereo not shown) [Example 113, 3-(Cyclopropylphenylmethyl)-6,7-dihydro-4-hydroxy-cyclopenta[b]pyran-2(5H)-one] |  |  |  | inhibition at 1 µM [4]: 39.6%; inhibition at 10 µM [5]: 99.8%; inhibition at 100 µM [6]: 109%
15 | O=c1oc2c(c(O)c1C(c1ccccc1)C1CC1)CCCCCCCCCC2 (stereo not shown) [Example 114, 3-(Cyclopropylphenylmethyl)-5,6,7,8,9,10,11,12,13,14-decahydro-4-hydroxy-2H-cyclododeca[b]pyran-2-one] |  |  |  | inhibition at 1 µM [4]: < 10%; inhibition at 10 µM [5]: < 10%; inhibition at 100 µM [6]: 14.1%
16 | O=c1oc2c(c(O)c1C(C1CC1)C1CC1)CCCCCC2 [Example 118, 3-(Dicyclopropylmethyl)-5,6,7,8,9,10-hexahydro-4-hydroxy-2H-cycloocta[b]pyran-2-one] |  |  | 105 | inhibition at 0.41 µM: 68.7%; inhibition at 1.23 µM: 87.9%; inhibition at 3.7 µM: 99%; inhibition at 11 µM: 110%; inhibition at 33 µM: 103%
17 | CCC(c1ccccc1)c1c(O)c2ccc(OCCN3CCOCC3)cc2oc1=O (stereo not shown) [Example 141, 4-Hydroxy-7-(2-morpholin-4-yl-ethoxy)-3-(1-phenyl-propyl)-chromen-2-one] | 14.2 | 77.4 | 103 | 

Row | SMILES | inhibition at 1 µM [1] [%] | inhibition at 10 µM [2] [%] | inhibition at 100 µM [3] [%] | other results
18 | O=c1oc2ccccc2c(O)c1C1(c2ccccc2)CC1 [Example 142, 4-Hydroxy-3-(1-phenyl-cyclopropyl)-chromen-2-one] | < 10 | 15.7 | 71.8 | 
19 | CCC(c1cccc(C(=O)NC2c3ccccc3CC2O)c1)c1c(O)c2ccccc2oc1=O (stereo not shown) [Example 143, N-(2-Hydroxy-indan-1-yl)-3-(1-(4-hydroxy-2-oxo-2H-chromen-3-yl)-propyl)-benzamide] | 10.8 | 77.1 | 92.1 | 
20 | CCC(Cc1ccccc1)c1c(O)c2ccccc2oc1=O (stereo not shown) [Example 144, 3-(1-Benzyl-propyl)4-hydroxy-chromen-2-one] | 25.9 | 77 | 86 | 
21 | O=c1oc2ccccc2c(O)c1C(CCc1ccccc1)Cc1ccccc1 (stereo not shown) [Example 145, 3-(1-Benzyl-3-phenyl-propyl)4-hydroxy-chromen-2-one] | 37 | 81 | 97 | 
22 | CCCC(Cc1ccccc1)c1c(O)c2ccccc2oc1=O (stereo not shown) [Example 147, 3-(1 -Benzyl-butyl)-4-hydroxy-chromen-2-one] | 34.7 | 86.3 | 96.5 | 
23 | CCC(c1cccc(C(=O)NCc2nc3ccccc3[nH]2)c1)c1c(O)c2ccccc2oc1=O (stereo not shown) [Example 148, N-(1H-Benzoimidazol-2-ylmethyl)-3-(1-(4-hydroxy-2-oxo-2H-chromen-3-yl)-propyl)-benzamide] | < 10 | 57.9 | 93.7 | 
24 | CC(=O)Oc1ccc(C(C)(C)c2c(O)c3ccccc3oc2=O)cc1 [Example 150, Acetic acid 4-(1-(4-Hydroxy-2-oxo-2H-chromen-3-yl)-l-methyl-ethyl)-phenylester] | < 10 | 62.4 | 93 | 
25 | CCC(c1ccccc1)c1c(O)c2ccc(OCCOCCOC)cc2oc1=O (stereo not shown) [Example 151, 4-Hydroxy-7-(2-(2-methoxy-ethoxy)-ethoxy)-3-(1-phenyl-propyl)-chromen-2-one] | 29.1 | 82.8 | 92.4 | 
26 | Cc1cc(C)c2c(c1)C(c1c(O)c3ccccc3oc1=O)CCO2 (stereo not shown) [Example 153, 4-Hydroxy-6',8'-Dimethyl-3',4'-dihydro-2'H-[3',4']bicromenyl-2-one] | < 10 | 34 |  | HIV-1 Protease % Inhib (dose 100.000 uM): 79.57% and 115.36%
27 | CCC(CCc1ccccc1)c1c(O)c2ccccc2oc1=O (stereo not shown) [Example 155, 3-(1-Ethyl-3-phenyl-propyl)4-hydroxy-chromen-2-one] | 15.4 | 74.9 | 91.9 | 
28 | CCC(CCCc1ccccc1)c1c(O)c2ccccc2oc1=O (stereo not shown) [Example 156, 3-(1-Ethyl4-phenyl-butyl)-4-hydroxy-chromen-2-one] | 17.1 | 33.6 | 63.7 | 
29 | COC(=O)C(C(=O)OC)C(c1ccccc1)c1c(O)c2ccccc2oc1=O (stereo not shown) [Example 157, 2-((4-Hydroxy-2-oxo-2H-chromen-3-yl)-phenyl-methyl)-malonic acid dimethyl ester] | < 10 | < 10 | 64 | 
30 | O=c1oc2ccccc2c(O)c1C1CCOc2ccccc21 (stereo not shown) [Example 158, 4-Hydroxy-3',4'-dihydro-2'H-[3,4]bichromenyl-2-one] | < 10 | 26.7 | 93.4 | 
31 | O=c1oc2ccccc2c(O)c1C(CCO)c1ccccc1 (stereo not shown) [Example 160, 4-Hydroxy-3-(3-hydroxy-1-phenyl-propyl)-chromen-2-one] |  |  | 82.6 | inhibition at 0.41 µM: < 10%; inhibition at 1.23 µM: < 10%; inhibition at 3.7 µM: < 10%; inhibition at 11 µM: 14.2%; inhibition at 33 µM: 40.4%
32 | COc1ccc2c(O)c(C(c3cccc(NC(=O)OCc4ccccc4)c3)C3CC3)c(=O)oc2c1 (stereo not shown) [Example 166, Carbamic acid, [3-[cyclopropyl(4-hydroxy-7-methoxy-2-oxo-2H-1-benzopyran-3-yl)methyl]phenyl]-, phenylmethyl ester] |  |  | 100 | inhibition at 0.41 µM: < 10%; inhibition at 1.23 µM: 13.2%; inhibition at 3.7 µM: 33.4%; inhibition at 11 µM: 58.9%; inhibition at 33 µM: 89.1%
33 | CCCOc1ccc2c(O)c(C(CC)c3ccccc3)c(=O)oc2c1 (stereo not shown) [Example 169, Coumarin, 4-hydroxy-3-(1-phenylpropyl)-7-propoxy] |  | 76.8 |  | inhibition at 1.1 µM (read-out: HIV-1 Protease % Inhib, dose 1.100 uM): 13.1%; inhibition at 3.3 µM (read-out: HIV-1 Protease % Inhib, dose 3.300 uM): 44.4%; inhibition at 30 µM (read-out: HIV-1 Protease % Inhib, dose 30.000 uM): 99.9%
